Assay results reported in ChEMBL document CHEMBL1806399, “Synthesis and SAR of new pyrazolo[4,3-h]quinazoline-3-carboxamide derivatives as potent and selective MPS1 kinase inhibitors” (Bioorg Med Chem Lett, 2011).
In brackets after ≈: the same amount, converted by molar mass.

What was measured:
[1] = molecular target: T1, Dual specificity protein kinase TTK (Homo sapiens, UniProt P33981); assay: Inhibition of MPS1 assessed as [33P]-gamma-ATP incorporation into substrate P38-betatide by gamma counting
T1 sequence (P33981 whole entry): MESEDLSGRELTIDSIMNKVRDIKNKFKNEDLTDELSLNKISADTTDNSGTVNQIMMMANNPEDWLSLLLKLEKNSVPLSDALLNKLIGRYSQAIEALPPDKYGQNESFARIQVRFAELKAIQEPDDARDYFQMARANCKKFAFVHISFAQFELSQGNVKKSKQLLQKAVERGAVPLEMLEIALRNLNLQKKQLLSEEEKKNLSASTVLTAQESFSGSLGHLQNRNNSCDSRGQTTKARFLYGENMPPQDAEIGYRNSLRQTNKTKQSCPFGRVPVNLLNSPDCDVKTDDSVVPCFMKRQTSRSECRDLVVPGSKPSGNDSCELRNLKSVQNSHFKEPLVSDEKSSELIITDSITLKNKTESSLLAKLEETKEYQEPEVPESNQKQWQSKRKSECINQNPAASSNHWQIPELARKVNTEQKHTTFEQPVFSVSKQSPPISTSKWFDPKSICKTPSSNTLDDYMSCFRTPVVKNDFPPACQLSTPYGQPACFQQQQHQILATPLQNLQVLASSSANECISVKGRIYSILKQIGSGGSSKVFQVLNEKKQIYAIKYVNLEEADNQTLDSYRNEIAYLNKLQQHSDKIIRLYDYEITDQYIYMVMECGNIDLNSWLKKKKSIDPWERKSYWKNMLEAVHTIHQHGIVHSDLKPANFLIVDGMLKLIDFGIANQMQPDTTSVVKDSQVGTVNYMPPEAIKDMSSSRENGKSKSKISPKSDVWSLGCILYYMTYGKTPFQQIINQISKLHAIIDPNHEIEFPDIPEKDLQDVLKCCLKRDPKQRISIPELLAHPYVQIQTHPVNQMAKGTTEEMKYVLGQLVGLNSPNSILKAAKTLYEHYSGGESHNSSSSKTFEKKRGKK

[2] = molecular target: Serine/threonine-protein kinase PLK1 (Homo sapiens, UniProt P53350); assay: Inhibition of PLK1 assessed as [33P]-gamma-ATP incorporation into substrate by gamma counting
Sequence of Serine/threonine-protein kinase PLK1 (P53350 whole entry): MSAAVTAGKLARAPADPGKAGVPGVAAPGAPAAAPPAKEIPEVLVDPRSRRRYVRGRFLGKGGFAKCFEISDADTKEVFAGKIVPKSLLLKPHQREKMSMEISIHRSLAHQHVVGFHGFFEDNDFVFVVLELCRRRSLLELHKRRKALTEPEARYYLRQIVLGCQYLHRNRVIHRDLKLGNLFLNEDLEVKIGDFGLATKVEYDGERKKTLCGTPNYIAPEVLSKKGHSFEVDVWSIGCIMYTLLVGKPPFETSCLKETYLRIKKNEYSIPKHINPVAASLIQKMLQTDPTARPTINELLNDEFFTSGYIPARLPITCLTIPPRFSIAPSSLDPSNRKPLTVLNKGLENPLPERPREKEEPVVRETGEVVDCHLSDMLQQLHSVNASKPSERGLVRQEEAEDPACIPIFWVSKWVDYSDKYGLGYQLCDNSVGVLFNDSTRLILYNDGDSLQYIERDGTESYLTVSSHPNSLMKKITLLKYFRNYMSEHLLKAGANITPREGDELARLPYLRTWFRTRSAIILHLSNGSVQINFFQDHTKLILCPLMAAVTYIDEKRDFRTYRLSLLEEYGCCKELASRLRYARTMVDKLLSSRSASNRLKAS

[3] = molecular target: Cyclin-dependent kinase 2/cyclin A (Homo sapiens, UniProt P24941); assay: Inhibition of CDK2/Cyclin A assessed as [33P]-gamma-ATP incorporation into substrate by gamma counting; assay type: protein-complex assay
Aurora kinase A = molecular target: T2, Aurora kinase A (Homo sapiens, UniProt O14965); assay: Inhibition of Aur-A assessed as [33P]-gamma-ATP incorporation into substrate by gamma counting
T2 sequence (O14965 whole entry): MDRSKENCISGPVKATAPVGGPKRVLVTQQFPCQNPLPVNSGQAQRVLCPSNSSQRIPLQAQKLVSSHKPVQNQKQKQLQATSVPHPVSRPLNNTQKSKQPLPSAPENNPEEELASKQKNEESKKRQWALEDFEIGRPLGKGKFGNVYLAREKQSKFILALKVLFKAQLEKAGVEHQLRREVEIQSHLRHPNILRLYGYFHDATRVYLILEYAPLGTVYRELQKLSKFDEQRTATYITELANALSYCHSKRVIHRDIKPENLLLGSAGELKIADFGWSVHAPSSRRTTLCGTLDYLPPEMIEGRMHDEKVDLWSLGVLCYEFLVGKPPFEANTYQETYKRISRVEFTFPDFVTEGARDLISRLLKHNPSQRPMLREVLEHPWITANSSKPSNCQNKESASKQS

[4] = Solubility of the compound at pH 7; assay type: physicochemical; conditions: buffer
A2780 = assay: Antiproliferative activity in human A2780 cells after 72 hrs by CellTiter-Glo assay; assay type: functional, cell-based; conditions: A2780, 72 h
U2OS = assay: Inhibition of mitosis in human U2OS cells assessed as histone H3 phosphorylation at Ser 10 residue after 2 hrs by immunoassay; assay type: functional, cell-based
[5] = Cmax in mouse at 10 mg/kg, po; assay type: ADME, organism-based; set-up: dose 10 mg/kg, route oral; conditions: in vivo
[6] = Half life in mouse at 10 mg/kg, po; assay type: ADME, organism-based; set-up: dose 10 mg/kg, route oral; conditions: in vivo
[7] = Oral bioavailability in mouse at 10 mg/kg; assay type: ADME, organism-based; conditions: in vivo
[8] = AUC in mouse at 10 mg/kg, po; assay type: ADME, organism-based; set-up: dose 10 mg/kg, route oral; conditions: plasma
[9] = Half life in mouse at 10 mg/kg, iv; assay type: ADME, organism-based; set-up: dose 10 mg/kg, route intravenous; conditions: in vivo
[10] = AUC in mouse at 10 mg/kg, iv; assay type: ADME, organism-based; set-up: dose 10 mg/kg, route intravenous; conditions: plasma
[11] = Volume of distribution at steady state in mouse at 10 mg/kg, iv; assay type: ADME, organism-based; set-up: dose 10 mg/kg, route intravenous; conditions: in vivo, read-out: Vdss
[12] = Clearance in mouse at 10 mg/kg, iv; assay type: ADME, organism-based; set-up: dose 10 mg/kg, route intravenous; conditions: in vivo
Mus musculus [13] = assay: Antitumor activity against human A2780 cells xenografted in mouse assessed as tumor growth inhibition at 90 mg/kg, po for seven consecutive days; assay type: functional; conditions: read-out: GI
Mus musculus [14] = assay: Toxicity in mouse assessed as body weight loss at 90 mg/kg, po for seven consecutive days; assay type: organism-based; set-up: dose 90 mg/kg, route oral; conditions: in vivo

Row | SMILES | IC50 [1] | IC50 [2] | IC50 [3] | IC50 (Aurora kinase A) | solubility [4] | IC50 (A2780) | IC50 (U2OS) | also measured
1 | CCc1cccc(CC)c1NC(=O)c1nn(C)c2c1CCc1cnc(Nc3ccc(C(=O)NCCN(C)C)cc3OC(F)(F)F)nc1-2 | 0.13 µM | > 10 µM | > 10 µM | 1.38 µM | 27 µM (≈ 17.6 µg/mL) | 0.771 µM | 0.11 µM | 
2 | Cn1nc(C(=O)NCc2ccccc2)c2c1-c1nc(Nc3ccccc3)ncc1CC2 | > 11 µM | > 10 µM |  |  |  |  |  | 
3 | CCc1cccc(CC)c1NC(=O)c1nn(C)c2c1CCc1cnc(Nc3ccc(C(=O)NC4CCN(C)CC4)cc3OC)nc1-2 | 0.084 µM | 0.237 µM | > 10 µM | 1.45 µM | 3 µM (≈ 1.87 µg/mL) | 0.15 µM | 0.016 µM | 
4 | CCc1cccc(CC)c1NC(=O)c1nn(C)c2c1CCc1cnc(Nc3ccc(C(=O)N4CCC(N(C)C)CC4)cc3OC)nc1-2 | 0.019 µM | > 10 µM | > 10 µM | 0.484 µM | 116 µM (≈ 73.9 µg/mL) | 0.083 µM | 0.002 µM | 
5 | Cn1nc(C(N)=O)c2c1-c1nc(Nc3ccccc3OC(F)(F)F)ncc1CC2 | 1.22 µM |  | > 10 µM | > 10 µM |  |  |  | 
6 | CCc1cccc(CC)c1NC(=O)c1nn(C)c2c1CCc1cnc(Nc3ccccc3OC(F)(F)F)nc1-2 | 0.823 µM | > 10 µM | > 10 µM | > 10 µM | < 1 µM | 2.86 µM |  | 
7 | CCc1cccc(CC)c1NC(=O)c1nn(C)c2c1CCc1cnc(Nc3ccc(C(=O)N4CCC[C@@H]4CN4CCCC4)cc3OC(F)(F)F)nc1-2 | 0.391 µM | > 10 µM | > 10 µM | > 10 µM | 65 µM (≈ 46.6 µg/mL) | 0.422 µM | 0.21 µM | 
8 | CCc1cccc(CC)c1NC(=O)c1nn(C)c2c1CCc1cnc(Nc3ccc(C(=O)N4CCC[C@H]4CN4CCCC4)cc3OC(F)(F)F)nc1-2 | 0.202 µM | > 10 µM | > 10 µM | > 10 µM | 69 µM (≈ 49.5 µg/mL) | 0.407 µM | 0.26 µM | 
9 | CCc1cccc(CC)c1NC(=O)c1nn(C)c2c1CCc1cnc(Nc3ccccc3)nc1-2 | 0.53 µM | > 10 µM | > 10 µM | 0.152 µM |  |  |  | 
10 | CCc1cccc(CC)c1NC(=O)c1nn(C)c2c1CCc1cnc(Nc3ccc(C(N)=O)cc3OC(F)(F)F)nc1-2 | 0.14 µM | > 10 µM | > 10 µM | > 10 µM | 1 µM (≈ 0.58 µg/mL) | 0.298 µM | 0.16 µM | 
11 | CCc1cccc(CC)c1NC(=O)c1nn(C)c2c1CCc1cnc(Nc3ccc(C(=O)NCCN(C)C)cc3OC)nc1-2 | 0.033 µM | 1.65 µM | > 10 µM | 0.75 µM | 44 µM (≈ 26.3 µg/mL) | 0.101 µM | 0.012 µM | 
12 | Cc1ccccc1Nc1ncc2c(n1)-c1c(c(C(N)=O)nn1C)CC2 | 0.241 µM |  |  |  |  |  |  | 

The next lines start with results.

Row | IC50 [1] | IC50 [2] | IC50 [3] | IC50 (Aurora kinase A) | solubility [4] | IC50 (A2780) | IC50 (U2OS) | SMILES | also measured
13 | 0.066 µM |  |  |  |  |  |  | COc1ccccc1Nc1ncc2c(n1)-c1c(c(C(N)=O)nn1C)CC2 | 
14 | > 12 µM | > 10 µM | 0.697 µM | 0.677 µM |  |  |  | Cn1nc(C(=O)NCCc2ccccc2)c2c1-c1nc(Nc3ccccc3)ncc1CC2 | 
15 | 0.103 µM | > 10 µM | > 10 µM | 1.38 µM | 110 µM (≈ 72.9 µg/mL) | 0.083 µM | 0.011 µM | CCc1cccc(CC)c1NC(=O)c1nn(C)c2c1CCc1cnc(Nc3ccc(C(=O)N4CCC[C@@H]4CN4CCCC4)cc3OC)nc1-2 | 
16 | 0.021 µM | > 10 µM | 3.62 µM | 0.372 µM | 59 µM (≈ 36.7 µg/mL) | < 0.016 µM | 0.002 µM | CCc1cccc(CC)c1NC(=O)c1nn(C)c2c1CCc1cnc(Nc3ccc(C(=O)N4CCCN(C)CC4)cc3OC)nc1-2 | 
17 | 0.206 µM | > 10 µM | > 10 µM | > 10 µM | 70 µM (≈ 48.4 µg/mL) | 0.485 µM | 0.04 µM | CCc1cccc(CC)c1NC(=O)c1nn(C)c2c1CCc1cnc(Nc3ccc(C(=O)N4CCC(N(C)C)CC4)cc3OC(F)(F)F)nc1-2 | 
18 | 0.072 µM | > 10 µM | > 10 µM | 0.491 µM | 96 µM (≈ 63.6 µg/mL) | 0.073 µM | 0.013 µM | CCc1cccc(CC)c1NC(=O)c1nn(C)c2c1CCc1cnc(Nc3ccc(C(=O)N4CCC[C@H]4CN4CCCC4)cc3OC)nc1-2 | 
19 | 0.525 µM | > 10 µM | > 10 µM | 3.17 µM | < 1 µM | 0.541 µM |  | CCc1cccc(CC)c1NC(=O)c1nn(C)c2c1CCc1cnc(Nc3ccccc3OC)nc1-2 | 
20 | 0.146 µM | > 10 µM | > 10 µM | > 10 µM | 46 µM (≈ 31.1 µg/mL) | 0.244 µM | 0.032 µM | CCc1cccc(CC)c1NC(=O)c1nn(C)c2c1CCc1cnc(Nc3ccc(C(=O)N4CCCN(C)CC4)cc3OC(F)(F)F)nc1-2 | Cmax [5]: 0.245 µM; half-life [6]: 2.92 h; bioavailability [7]: 22.4%; AUC [8]: 640 nM·h; half-life [9]: 1.61 h; AUC [10]: 2900 nM·h; Vd [11]: 8.41 L/kg; clearance [12]: 4.65 L/h/kg
21 | 0.036 µM | 3.03 µM | 5.57 µM | 0.768 µM | < 1 µM | 0.135 µM | 0.004 µM | CCc1cccc(CC)c1NC(=O)c1nn(C)c2c1CCc1cnc(Nc3ccc(C(N)=O)cc3OC)nc1-2 | 
22 |  | > 10 µM |  |  | 45 µM (≈ 30.5 µg/mL) | 1 µM | 0.032 µM | CCc1cccc(CC)c1NC(=O)c1nn(C)c2c1CCc1cnc(Nc3ccc(C(=O)NC4CCN(C)CC4)cc3OC(F)(F)F)nc1-2 | inhibition in vivo at 90 mg/kg (Mus musculus [13]): 53%; Activity (Mus musculus [14]): Non-toxic
23 | 2.17 µM |  |  |  |  |  |  | CNC(=O)c1nn(C)c2c1CCc1cnc(Nc3ccccc3)nc1-2 | 
